US9376425B2, “Heterocyclic compounds as MDM2 inhibitors for the treatment of cancer” (AMGEN INC., priority 2011, dated 2016)
Counter-ions that a name gives are not always drawn.

Target: T1, human MDM2 (GST-hMDM2 1-188), interaction with biotinylated-p53 (1-83) (Homo sapiens, UniProt Q00987)
T1 construct: Amino acid residues 1-188 of human MDM2 were expressed; made in house; host or cells: Escherichia coli
Assay: improved HTRF assay (HTRF2 assay), inhibition of HDM2-p53 interaction
Assay type: binding
Details: 0.2 nM GST-hMDM2, 0.5 nM biotinylated-p53, 100 mM KF
Procedure: Residues 1-83 of human p53 were expressed as an amino-terminal AviTag™-TrxA-6xHis fusion protein (biotinylated p53) in E. coli. Each protein was purified from cell paste by affinity chromatography.
Specifically, 10 uL of GST-hMDM2 was incubated with 10 ul of diluted compound (various concentrations, serially diluted) in 10% DMSO for 20 minutes at room temperature. 20 uL of biotinylated-p53 was added to the GST-hMDM2+ compound mixture, and then incubated at room temperature for 60 min. 10 uL of detection buffer consisting of SA-XLent, anti-GST cryptate antibody and KF was added to GST-hMDM2, biotinylated-p53 and compound reaction and left at room temperature to reach equilibrium for >4 hrs. The final concentration of DMSO in the reaction was 2%. Time-resolved fluorescence readings were measured on a microplate multilabel reader. Percentage of inhibition was calculated relative to nutlin-3.

T1 sequence (Q00987 1-188): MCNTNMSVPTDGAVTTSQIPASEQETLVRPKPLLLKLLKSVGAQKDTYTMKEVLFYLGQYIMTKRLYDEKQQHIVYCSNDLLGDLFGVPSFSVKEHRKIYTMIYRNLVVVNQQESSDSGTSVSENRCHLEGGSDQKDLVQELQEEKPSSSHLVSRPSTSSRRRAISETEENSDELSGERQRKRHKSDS

| Compound | IC50 |
| --- | --- |
| 2-((2R,5R,6R)-6-(3-Chlorophenyl)-5-(4-chlorophenyl)-4-((3S,5R)-5-hydroxyhexan-3-yl)-3-oxomorpholin-2-yl)acetic acid or 2-((2R,5R,6R)-6-(3-Chlorophenyl)-5-(4-chlorophenyl)-4-((3S,5S)-5-hydroxyhexan-3-yl)-3-oxomorpholin-2-yl)acetic acid [Example 127] | 34 nM |
| 2-((2R,5R,6R)-6-(3-Chlorophenyl)-5-(4-chlorophenyl)-4-((3S,5S)-5-hydroxyhexan-3-yl)-3-oxomorpholin-2-yl)acetic acid or 2-((2R,5R,6R)-6-(3-Chlorophenyl)-5-(4-chlorophenyl)-4-((3S,5R)-5-hydroxyhexan-3-yl)-3-oxomorpholin-2-yl)acetic acid [Example 126] | 61 nM |
| 2-((2R,5R,6R)-6-(3-chlorophenyl)-5-(4-chlorophenyl)-4-((S)-1-(N-(2-cyanophenyl)cyclopropanesulfonamido)butan-2-yl)-3-oxomorpholin-2-yl)acetic acid or 2-((2S,5R,6R)-6-(3-chlorophenyl)-5-(4-chlorophenyl)-4-((S)-1-(N-(2-cyanophenyl)cyclopropanesulfonamido)butan-2-yl)-3-oxomorpholin-2-yl)acetic acid [Example 206] | 145 nM |
| 2-((2R,5R,6R)-6-(3-chlorophenyl)-5-(4-chlorophenyl)-4-((S)-1-(N-(2-cyanophenyl)cyclopropanesulfonamido)butan-2-yl)-3-oxomorpholin-2-yl)acetic acid or 2-((2S,5R,6R)-6-(3-chlorophenyl)-5-(4-chlorophenyl)-4-((S)-1-(N-(2-cyanophenyl)cyclopropanesulfonamido)butan-2-yl)-3-oxomorpholin-2-yl)acetic acid [Example 207] | < 1 nM |
| 2-((2R,5R,6R)-6-(3-chlorophenyl)-5-(4-chlorophenyl)-4-((S)-1-(N-(2-fluorophenyl)cyclopropanesulfonamido)-3-methylbutan-2-yl)-3-oxomorpholin-2-yl)acetic acid or 2-((2S,5R,6R)-6-(3-chlorophenyl)-5-(4-chlorophenyl)-4-((S)-1-(N-(2-fluorophenyl)cyclopropane sulfonamido)-3-methylbutan-2-yl)-3-oxomorpholin-2-yl)acetic acid [Example 196] | 1 nM |
| CC(C)(C)S(=O)(=O)C[C@H](C1CC1)N1C(=O)[C@@H](CC(=O)O)O[C@H](c2cccc(Cl)c2F)[C@H]1c1ccc(Cl)cc1.CC(C)(C)S(=O)(=O)C[C@H](C1CC1)N1C(=O)[C@H](CC(=O)O)O[C@H](c2cccc(Cl)c2F)[C@H]1c1ccc(Cl)cc1 (mixture of isomers) [Example 326, 2-((2R,5R,6R)-4-((S)-2-(tert-Butylsulfonyl)-1-cyclopropylethyl)-6-(3-chloro-2-fluorophenyl)-5-(4-chlorophenyl)-3-oxomorpholin-2-yl)acetic acid and 2-((2S,5R,6R)-4-((S)-2-(tert-butylsulfonyl)-1-cyclopropylethyl)-6-(3-chloro-2-fluorophenyl)-5-(4-chlorophenyl)-3-oxomorpholin-2-yl)acetic acid] | < 1 nM |
| CC[C@@H](CS(=O)(=O)C(C)(C)C)N1C(=O)C(CN)O[C@H](c2cccc(Cl)c2)[C@H]1c1ccc(Cl)cc1 (mixture of isomers) [Example 378, (2R,5R,6R)-2-(Aminomethyl)-4-((S)-1-(tert-butylsulfonyl)butan-2-yl)-6-(3-chlorophenyl)-5-(4-chlorophenyl)morpholin-3-one hydrochloride and (2S,5R,6R)-2-(aminomethyl)-4-((S)-1-(tert-butylsulfonyl)butan-2-yl)-6-(3-chlorophenyl)-5-(4-chlorophenyl)morpholin-3-one hydrochloride] | 142 nM |
| CC[C@@H](CS(=O)(=O)C(C)(C)CC)N1C(=O)[C@@H](CC(=O)O)O[C@H](c2cccc(Cl)c2)[C@H]1c1ccc(Cl)cc1 (single isomer, unassigned) [Example 122, 2-((2R,5R,6R)-6-(3-Chlorophenyl)-5-(4-chlorophenyl)-3-oxo-4-((S)-1-(tert-pentylsulfonyl)butan-2-yl)morpholin-2-yl)acetic acid or 2-((2S,5R,6R)-6-(3-Chlorophenyl)-5-(4-chlorophenyl)-3-oxo-4-((S)-1-(tert-pentylsulfonyl)butan-2-yl)morpholin-2-yl)acetic acid] | < 1 nM |
| CC[C@@H](CS(=O)(=O)C(C)(C)CC)N1C(=O)[C@H](CC(=O)O)O[C@H](c2cccc(Cl)c2)[C@H]1c1ccc(Cl)cc1 (single isomer, unassigned) [Example 123, 2-((2S,5R,6R)-6-(3-Chlorophenyl)-5-(4-chlorophenyl)-3-oxo-4-((S)-1-(tert-pentylsulfonyl)butan-2-yl)morpholin-2-yl)acetic acid or 2-((2R,5R,6R)-6-(3-Chlorophenyl)-5-(4-chlorophenyl)-3-oxo-4-((S)-1-(tert-pentylsulfonyl)butan-2-yl)morpholin-2-yl)acetic acid] | 1 nM |
| CC[C@@H](CS(=O)(=O)C(C)C)N1C(=O)[C@@H](CC(=O)O)O[C@H](c2cc(F)cc(Cl)c2)[C@H]1c1ccc(Cl)cc1 (single isomer, unassigned) [Example 124, 2-((2R,5R,6R)-6-(3-Chloro-5-fluorophenyl)-5-(4-chlorophenyl)-4-((S)-1-(isopropylsulfonyl)butan-2-yl)-3-oxomorpholin-2-yl)acetic acid or 2-((2S,5R,6R)-6-(3-Chloro-5-fluorophenyl)-5-(4-chlorophenyl)-4-((S)-1-(isopropylsulfonyl)butan-2-yl)-3-oxomorpholin-2-yl)acetic acid] | 2 nM |
| CC[C@@H](CS(=O)(=O)C(C)C)N1C(=O)[C@H](CC(=O)O)O[C@H](c2cc(F)cc(Cl)c2)[C@H]1c1ccc(Cl)cc1 (single isomer, unassigned) [Example 125, 2-((2S,5R,6R)-6-(3-Chloro-5-fluorophenyl)-5-(4-chlorophenyl)-4-((S)-1-(isopropylsulfonyl)butan-2-yl)-3-oxomorpholin-2-yl)acetic acid or 2-((2R,5R,6R)-6-(3-Chloro-5-fluorophenyl)-5-(4-chlorophenyl)-4-((S)-1-(isopropylsulfonyl)butan-2-yl)-3-oxomorpholin-2-yl)acetic acid] | 11 nM |
| CC[C@@H](CS(=O)(=O)c1ccccc1Cl)N1C(=O)[C@@H](CC(=O)O)O[C@H](c2cccc(Cl)c2)[C@H]1c1ccc(Cl)cc1 (single isomer, unassigned) [Example 137, 2-((2R,5R,6R)-6-(3-chlorophenyl)-5-(4-chlorophenyl)-4-((S)-1-((2-chlorophenyl)sulfonyl)butan-2-O-3-oxomorpholin-2-yl)acetic acid or 2-((2S,5R,6R)-6-(3-chlorophenyl)-5-(4-chlorophenyl)-4-((S)-1-((2-chlorophenyl)sulfonyl)butan-2-yl)-3-oxomorpholin-2-yl)acetic acid] | 5 nM |
| CC[C@@H](CS(=O)(=O)c1ccccc1Cl)N1C(=O)[C@@H](CC(=O)O)O[C@H](c2cccc(Cl)c2)[C@H]1c1ccc(Cl)cc1 (single isomer, unassigned) [Example 138, 2-((2R,5R,6R)-6-(3-chlorophenyl)-5-(4-chlorophenyl)-4-((S)-1-((2-chlorophenyl)sulfonyl)butan-2-yl)-3-oxomorpholin-2-yl)acetic acid or 2-((2S,5R,6R)-6-(3-chlorophenyl)-5-(4-chlorophenyl)-4-((S)-1-((2-chlorophenyl)sulfonyl)butan-2-yl)-3-oxomorpholin-2-yl)acetic acid] | 29 nM |
| CC[C@@H](CS(=O)(=O)C1CCC1)N1C(=O)[C@@H](CC(=O)O)O[C@H](c2cccc(Cl)c2)[C@H]1c1ccc(Cl)cc1 (single isomer, unassigned) [Example 141, 2-((2R,5R,6R)-6-(3-chlorophenyl)-5-(4-chlorophenyl)-4-((S)-1-(cyclobutylsulfonyl)butan-2-yl)-3-oxomorpholin-2-yl)acetic acid or 2-((2S,5R,6R)-6-(3-chlorophenyl)-5-(4-chlorophenyl)-4-((S)-1-(cyclobutylsulfonyl)butan-2-yl)-3-oxomorpholin-2-yl)acetic acid] | 1 nM |
| CC[C@@H](CS(=O)(=O)C1CCC1)N1C(=O)[C@@H](CC(=O)O)O[C@H](c2cccc(Cl)c2)[C@H]1c1ccc(Cl)cc1 (single isomer, unassigned) [Example 142, 2-((2R,5R,6R)-6-(3-chlorophenyl)-5-(4-chlorophenyl)-4-((S)-1-(cyclobutylsulfonyl)butan-2-yl)-3-oxomorpholin-2-yl)acetic acid or 2-((2S,5R,6R)-6-(3-chlorophenyl)-5-(4-chlorophenyl)-4-((S)-1-(cyclobutylsulfonyl)butan-2-yl)-3-oxomorpholin-2-yl)acetic acid] | 7 nM |
| CC[C@@H](CS(=O)(=O)C(C)C)N1C(=O)[C@@H](CC(=O)O)O[C@H](c2cc(Cl)cc(Cl)c2)[C@H]1c1ccc(Cl)cc1 (single isomer, unassigned) [Example 145, 2-((2R,5R,6R)-5-(4-chlorophenyl)-6-(3,5-dichlorophenyl)-4-((S)-1-(isopropylsulfonyl)butan-2-yl)-3-oxomorpholin-2-yl)acetic acid or 2-((2S,5R,6R)-5-(4-chlorophenyl)-6-(3,5-dichlorophenyl)-4-((S)-1-(isopropylsulfonyl)butan-2-yl)-3-oxomorpholin-2-yl)acetic acid] | 8 nM |
